The nature of this data set: Pharmacokinetics after repeated-dose intragastric administration in beagle dogs. The note with it: R-IG 2.5 mg/kg. Format: in vivo. As to the method: AUC0-∞ was 195.41 ± 90.03 and 728.57 ± 270.64 h∙ng/mL, respectively (Table 2, Figure 10). […] On the fifth and seventh days before administration, the plasma concentration (valley concentration) was mostly below the lower limit of quantification (1 ng/mL).
In vivo PK profiling in dogs: Beagle dogs (approximately 8–10 kg in weight) were purchased from Jiangsu Yadong Experimental Animal Research Institute Co. Ltd (Nanjing, China). Before the experiment, several beagle dogs were randomly divided into several groups, half males and half females in each group. Four cycles of single-dose administration experiments were carried out, and the cleaning period was 3–5 days. Repeated-dose administration was carried out after the end of four cycles of single-dose administrations and cleaning periods. According to the dosage for the rats, the dosage for the beagle dogs was converted via the body surface area method. The HY-071085 active pharmaceutical ingredients were administered with a dosage volume of 2 mL/kg body weight. The whole-blood samples were centrifuged at 8000 rpm for 5 min, and the plasma samples were separated and stored at –80 °C until the analysis.
According to the obtained plasma concentration time data, the pharmacokinetic parameters were calculated using Phoenix WinNonlin 8.1 software. The pharmacokinetic parameters—i.e., the area under the curve (AUC), mean residence time (MRT), clearance rate (Cl/F) and steady-state apparent distribution volume (Vss/F)—were calculated by the method of moments, which was estimated according to the following formulae: AUCtn=∑Ci+Ci−1ti−ti−1/2 AUC∞=AUCtn+Cm/λ AUMCtn=∑tiCi+ti−1Ci−1ti−ti−1/2 AUMC∞=AUMCtn+Ctntn/λ+1/λ^2 MRT=AUMC∞/AUC∞ Cl/F=Dose/AUC Vss/F=Cl∗MRT where Ctn is the plasma concentration of tn at the last point after administration, and the elimination rate constant was obtained by ln(concentration) time linear regression.
Due to the drug having significant individual differences in rats, it could not be uniformly fitted with a PK atrioventricular model; as such, the pharmacokinetic parameters analyzed in this study were calculated using a non-atrioventricular model. The pharmacokinetic parameters are defined as follows: Cmax is the maximum blood concentration after administration and absorption, Tmax is the time required to reach Cmax, t1/2 is the time required to eliminate half of the plasma drug concentration after the drug distribution in the body reaches equilibrium, Cl/F is the apparent clearance rate, AUC0-tn is the area under the blood concentration time curve within the dosing interval, AUC0-∞ is the area under the plasma concentration time curve from 0 to infinity, MRT is the average time that all drug molecules stay in the body, and Vss/F is the steady-state apparent distribution volume, which is the product of the clearance rate and average residence time.

Where [1] appears, read: both sexes, dog, plasma, po, 7 d.

One may read the AUC(0-inf) as the area under the concentration-time curve extrapolated to infinity. A low value points to less exposure. A word on the CL/F: it is clearance divided by bioavailability, as obtained after extravascular dosing. The term Cmax denotes the peak of the concentration-time curve. As a reminder, the MRT is a mean duration of stay, worked out from the concentration-time curve. The Tmax is the time at which the peak concentration occurs. What is called half-life is the time in which the quantity being followed falls by half. Low readings indicate fast loss, high ones slow loss. Consider `CC1(C)OC2CC(=O)OCC23C1C/C(=N\OCCN1CCOCC1)C1(C)C3CC[C@@]2(C)[C@H](c3ccoc3)OC(=O)C3OC312` (stereo partly drawn) [HY-071085, (12S,12aS,E)-12-(furan-3-yl)-6,6,8a,12a-tetramethyl-8-((2-morpholinoethoxy)imino)dodecahydro-1H,3H-oxireno [2,3-d]pyrano [4’,3’:3,3a]isobenzofuro [5,4-f]isochromene-3,10(9aH)-dione], for which, under “fifth and seventh days, mostly below the lower limit of quantification”, the “plasma concentration (valley concentration) before administration” value is reported as < 1 ng/mL. Under setting [1], this compound showed an AUC(0-inf) of 729 ± 271 ng·h/mL, a CL/F at 7 d of 32.3 mL/min/kg, a peak concentration (Cmax) at 7 d of 445 ± 135 ng/mL and an MRT at 7 d of 1.58 ± 0.14 h. Besides, under setting [1], the Tmax at 7 d came to 0.27 ± 0.15 h and the half-life at 7 d was 1.08 ± 0.13 h. Besides, the AUC (both sexes, dog, plasma, po, 7 d, read-out: AUC0-tn) came to 723 ± 270 ng·h/mL. In addition, the Vd/F at 7 d (both sexes, dog, plasma, po, 7 d, read-out: Vss/F) was 3.04 ± 1.19 L/kg.

(Values after paper PMC9316000, “Preclinical Drug Pharmacokinetic, Tissue Distribution and Excretion Profiles of the Novel Limonin Derivate HY-071085 as an Anti-Inflammatory and Analgesic Candidate in Rats and Beagle Dogs” (Pharmaceuticals, 2022).)
